# Target: GAR transformylase (Sus scrofa)
# Test: In vitro inhibition of hog liver GAR transformylase with (6R)-10-formyl-FH4 as cofactor
row,Structure (SMILES),IC50 [µM]
1,Nc1nc(N)c(CCCOc2ccc(C(=O)NC(CCC(=O)O)C(=O)O)cc2)c(=O)[nH]1 (centres undefined),5.3
2,Nc1nnc(C2CCN(c3ccc(C(=O)NC(CCC(=O)O)C(=O)O)cc3)C2=O)c(=O)[nH]1 (centres undefined),> 100
3,Nc1nc(N)c(CCCNc2ccc(C(=O)NC(CCC(=O)O)C(=O)O)c(Cl)c2)c(=O)[nH]1 (centres undefined),6.6
4,Nc1nc[nH]c(=O)c1CCCNc1ccc(C(=O)NC(CCC(=O)O)C(=O)O)cc1 (centres undefined),52
5,Nc1nc(N)c(CCCCNc2ccc(C(=O)NC(CCC(=O)O)C(=O)O)cc2)c(=O)[nH]1 (centres undefined),18.2
6,Cc1cc(C(=O)NC(CCC(=O)O)C(=O)O)ccc1NCCCc1c(N)nc(N)[nH]c1=O (centres undefined),6.1

# The next compounds have a lower IC50 than those just listed; values first:
row,IC50 [µM],Structure (SMILES)
1,2.6,Nc1nc(N)c(CCCSc2ccc(C(=O)NC(CCC(=O)O)C(=O)O)cc2)c(=O)[nH]1 (centres undefined)
2,3.5,Nc1nc(N)c(CCCNc2ccc(C(=O)NC(CCC(=O)O)C(=O)O)cc2F)c(=O)[nH]1 (centres undefined)
3,3.1,Nc1nc(N)c(CCCNc2ccc(C(=O)NC(CCC(=O)O)C(=O)O)c(F)c2)c(=O)[nH]1 (centres undefined)
